Source: ChEMBL document CHEMBL1147785, “Novel peptidomimetic cysteine protease inhibitors as potential antimalarial agents” (J Med Chem, 2006)
Active and inactive are the calls of the source. Residues, ends and D or L forms follow the SMILES beside them. *: point of attachment. Cbz = O=C(OCc1ccccc1)*

What was measured:
Caspase-2 (Homo sapiens) = target: T1, Caspase-2 (Homo sapiens) (UniProt P42575); assay: Inhibition of human recombinant caspase2 upto 50 uM
T1 sequence (whole entry): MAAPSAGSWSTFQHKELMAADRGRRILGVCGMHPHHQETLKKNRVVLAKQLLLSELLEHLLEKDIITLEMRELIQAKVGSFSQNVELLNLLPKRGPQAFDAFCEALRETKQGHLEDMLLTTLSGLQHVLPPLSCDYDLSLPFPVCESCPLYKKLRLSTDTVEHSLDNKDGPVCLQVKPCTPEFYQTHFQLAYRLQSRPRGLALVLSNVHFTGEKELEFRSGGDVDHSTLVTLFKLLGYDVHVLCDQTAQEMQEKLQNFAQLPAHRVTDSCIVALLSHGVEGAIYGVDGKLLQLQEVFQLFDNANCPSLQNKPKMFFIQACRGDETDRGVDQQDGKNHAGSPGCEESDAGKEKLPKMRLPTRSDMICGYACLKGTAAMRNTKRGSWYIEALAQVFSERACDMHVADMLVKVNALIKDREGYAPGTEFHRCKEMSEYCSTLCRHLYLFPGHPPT

Caspase-1 (Homo sapiens) = target: T2, Caspase-1 (Homo sapiens) (UniProt P29466); assay: Inhibition of human recombinant caspase1 upto 50 uM
T2 sequence (whole entry): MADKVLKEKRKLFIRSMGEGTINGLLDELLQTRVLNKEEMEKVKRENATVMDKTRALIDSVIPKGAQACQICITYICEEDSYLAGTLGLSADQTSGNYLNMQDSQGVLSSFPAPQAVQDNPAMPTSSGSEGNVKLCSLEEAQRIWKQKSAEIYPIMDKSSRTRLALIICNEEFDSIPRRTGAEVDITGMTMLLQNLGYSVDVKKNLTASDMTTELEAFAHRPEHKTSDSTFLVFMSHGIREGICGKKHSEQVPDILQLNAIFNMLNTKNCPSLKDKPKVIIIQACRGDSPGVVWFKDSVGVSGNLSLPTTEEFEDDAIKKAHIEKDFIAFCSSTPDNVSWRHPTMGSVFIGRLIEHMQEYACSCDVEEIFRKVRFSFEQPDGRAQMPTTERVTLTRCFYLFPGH

Caspase-9 (Homo sapiens) = target: T3, Caspase-9 (Homo sapiens) (UniProt P55211); assay: Inhibition of human recombinant caspase9 upto 50 uM
T3 sequence (whole entry): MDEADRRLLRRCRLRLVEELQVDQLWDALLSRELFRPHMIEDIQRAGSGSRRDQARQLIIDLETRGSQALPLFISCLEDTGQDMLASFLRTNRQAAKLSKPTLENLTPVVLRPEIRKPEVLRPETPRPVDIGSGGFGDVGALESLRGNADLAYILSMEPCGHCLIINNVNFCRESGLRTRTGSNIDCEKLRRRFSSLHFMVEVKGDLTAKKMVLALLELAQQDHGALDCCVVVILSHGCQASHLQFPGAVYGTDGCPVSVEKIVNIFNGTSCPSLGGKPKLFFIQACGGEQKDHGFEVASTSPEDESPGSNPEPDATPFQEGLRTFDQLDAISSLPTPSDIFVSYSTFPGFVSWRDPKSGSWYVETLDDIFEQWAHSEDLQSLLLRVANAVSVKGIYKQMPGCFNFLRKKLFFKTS

Caspase-5 (Homo sapiens) = target: T4, Caspase-5 (Homo sapiens) (UniProt P51878); assay: Inhibition of human recombinant caspase5 upto 50 uM
T4 sequence (whole entry): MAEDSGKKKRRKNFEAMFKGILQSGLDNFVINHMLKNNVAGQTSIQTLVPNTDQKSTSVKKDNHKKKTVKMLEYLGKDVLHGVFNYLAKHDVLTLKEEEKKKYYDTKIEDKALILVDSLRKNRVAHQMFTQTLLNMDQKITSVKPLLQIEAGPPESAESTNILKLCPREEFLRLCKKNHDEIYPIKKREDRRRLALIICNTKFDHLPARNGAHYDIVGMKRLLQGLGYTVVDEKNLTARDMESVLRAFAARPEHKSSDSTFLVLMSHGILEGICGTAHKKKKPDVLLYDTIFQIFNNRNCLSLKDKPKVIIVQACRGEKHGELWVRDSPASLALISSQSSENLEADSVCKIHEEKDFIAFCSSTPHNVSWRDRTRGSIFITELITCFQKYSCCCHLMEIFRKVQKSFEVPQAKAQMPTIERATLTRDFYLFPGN

Caspase-3 (Homo sapiens) = target: T5, Caspase-3 (Homo sapiens) (UniProt P42574); assay: Inhibition of human recombinant caspase3 upto 50 uM
T5 sequence (whole entry): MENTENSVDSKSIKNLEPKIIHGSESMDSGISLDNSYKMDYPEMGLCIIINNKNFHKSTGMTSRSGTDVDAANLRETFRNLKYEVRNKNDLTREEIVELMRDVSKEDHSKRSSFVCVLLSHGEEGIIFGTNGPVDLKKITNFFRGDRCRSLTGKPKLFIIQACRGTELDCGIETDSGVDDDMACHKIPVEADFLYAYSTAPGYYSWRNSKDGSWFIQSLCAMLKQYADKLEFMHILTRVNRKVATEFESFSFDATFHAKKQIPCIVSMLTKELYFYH

Caspase-4 (Homo sapiens) = target: T6, Caspase-4 (Homo sapiens) (UniProt P49662); assay: Inhibition of human recombinant caspase4 upto 50 uM
T6 sequence (whole entry): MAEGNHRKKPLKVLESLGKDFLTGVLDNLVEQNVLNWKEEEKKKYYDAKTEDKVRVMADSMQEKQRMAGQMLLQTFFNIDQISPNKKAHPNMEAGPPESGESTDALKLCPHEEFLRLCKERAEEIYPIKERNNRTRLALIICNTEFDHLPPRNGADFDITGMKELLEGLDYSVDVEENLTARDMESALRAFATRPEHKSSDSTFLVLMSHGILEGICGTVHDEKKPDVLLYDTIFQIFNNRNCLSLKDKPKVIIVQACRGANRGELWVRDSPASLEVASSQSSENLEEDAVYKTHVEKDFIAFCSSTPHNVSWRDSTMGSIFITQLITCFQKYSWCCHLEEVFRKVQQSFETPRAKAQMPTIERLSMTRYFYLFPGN

Measured: Activity

O=C(CN1C(=O)[C@@H](COC(=O)Nc2ccc(F)cc2)N=C(c2ccccc2)c2ccccc21)N[C@H]1CC(=O)OC1O (stereo partly specified)
inactive: Caspase-2 (Homo sapiens) | Caspase-1 (Homo sapiens) | Caspase-9 (Homo sapiens) | Caspase-5 (Homo sapiens) | Caspase-3 (Homo sapiens) | Caspase-4 (Homo sapiens)

COc1ccc(NC(=O)OC[C@H]2N=C(c3ccccc3)c3ccccc3N(CC(=O)N[C@H]3CC(=O)OC3O)C2=O)cc1 (stereo partly specified)
inactive: Caspase-2 (Homo sapiens) | Caspase-1 (Homo sapiens) | Caspase-9 (Homo sapiens) | Caspase-5 (Homo sapiens) | Caspase-3 (Homo sapiens) | Caspase-4 (Homo sapiens)

O=C(CN1C(=O)[C@@H](COC(=O)Nc2ccc(Cl)cc2C(F)(F)F)N=C(c2ccccc2)c2ccccc21)N[C@H]1CC(=O)OC1O (stereo partly specified)
inactive: Caspase-2 (Homo sapiens) | Caspase-1 (Homo sapiens) | Caspase-9 (Homo sapiens) | Caspase-5 (Homo sapiens) | Caspase-3 (Homo sapiens) | Caspase-4 (Homo sapiens)

O=C(CN1C(=O)[C@@H](COC(=O)Nc2ccc(Cl)cc2)N=C(c2ccccc2)c2ccccc21)N[C@H]1CC(=O)OC1O (stereo partly specified)
inactive: Caspase-2 (Homo sapiens) | Caspase-1 (Homo sapiens) | Caspase-9 (Homo sapiens) | Caspase-5 (Homo sapiens) | Caspase-3 (Homo sapiens) | Caspase-4 (Homo sapiens)

O=C(CN1C(=O)[C@@H](COC(=O)Nc2cccc3ccccc23)N=C(c2ccccc2)c2ccccc21)N[C@H]1CC(=O)OC1O (stereo partly specified)
inactive: Caspase-2 (Homo sapiens) | Caspase-1 (Homo sapiens) | Caspase-9 (Homo sapiens) | Caspase-5 (Homo sapiens) | Caspase-3 (Homo sapiens) | Caspase-4 (Homo sapiens)

O=C(CN1C(=O)[C@@H](COC(=O)Nc2ccc(F)cc2F)N=C(c2ccccc2)c2ccccc21)N[C@H]1CC(=O)OC1O (stereo partly specified)
inactive: Caspase-2 (Homo sapiens) | Caspase-1 (Homo sapiens) | Caspase-9 (Homo sapiens) | Caspase-5 (Homo sapiens) | Caspase-3 (Homo sapiens) | Caspase-4 (Homo sapiens)

CC(C)[C@H](NC(=O)OCc1ccccc1)C(=O)N[C@H](C=O)Cc1ccccc1 (Cbz-Val-Phe-aldehyde)
inactive: Caspase-2 (Homo sapiens) | Caspase-1 (Homo sapiens) | Caspase-9 (Homo sapiens) | Caspase-5 (Homo sapiens) | Caspase-3 (Homo sapiens) | Caspase-4 (Homo sapiens)

O=C(CN1C(=O)[C@@H](COC(=O)Nc2c(F)cc(F)cc2Br)N=C(c2ccccc2)c2ccccc21)N[C@H]1CC(=O)OC1O (stereo partly specified)
inactive: Caspase-2 (Homo sapiens) | Caspase-1 (Homo sapiens) | Caspase-9 (Homo sapiens) | Caspase-5 (Homo sapiens) | Caspase-3 (Homo sapiens) | Caspase-4 (Homo sapiens)

O=C(CN1C(=O)[C@H](COC(=O)Nc2ccc(Cl)cc2C(F)(F)F)N=C(c2ccccc2)c2ccccc21)N[C@H]1CC(=O)OC1O (stereo partly specified)
inactive: Caspase-2 (Homo sapiens) | Caspase-1 (Homo sapiens) | Caspase-9 (Homo sapiens) | Caspase-5 (Homo sapiens) | Caspase-3 (Homo sapiens) | Caspase-4 (Homo sapiens)

Cc1cc(Cl)ccc1NC(=O)OC[C@H]1N=C(c2ccccc2)c2ccccc2N(CC(=O)N[C@H]2CC(=O)OC2O)C1=O (stereo partly specified)
inactive: Caspase-2 (Homo sapiens) | Caspase-1 (Homo sapiens) | Caspase-9 (Homo sapiens) | Caspase-5 (Homo sapiens) | Caspase-3 (Homo sapiens) | Caspase-4 (Homo sapiens)

O=C(CN1C(=O)[C@@H](COC(=O)Nc2ccccc2)N=C(c2ccccc2)c2ccccc21)N[C@H]1CC(=O)OC1O (stereo partly specified)
inactive: Caspase-2 (Homo sapiens) | Caspase-1 (Homo sapiens) | Caspase-9 (Homo sapiens) | Caspase-5 (Homo sapiens) | Caspase-3 (Homo sapiens) | Caspase-4 (Homo sapiens)
